pIC50, pKi: −log10 of the molar value.
Key:
cyclin D1/CDK4 complex = molecular target: T1, cyclin D1/CDK4 complex (Homo sapiens, UniProt P11802); assay: ELISA method, inhibitory effect on cyclin D1/CDK4 complex; assay type: biochemical; conditions: for OD levels (inhibitory effect): RB301 substrate, 100 µM ATP, Figs. 5 and 9
T1 construct: 6xHis (N); made in house; host or cells: Sf9 insect cells (baculovirus)
Procedure: (§1) Clone 1C12 (specific to Thr356), clone 4E4 (specific to Ser612), and clone 2C4 (specific to Ser780) were used as the anti-phosphorylated RB monoclonal antibodies. Each anti-phosphorylated RB monoclonal antibody was diluted to a concentration of 10 µg/ml in PBS, and 100 µl of the diluted solution was added to each well of the plate followed by incubating at 4 °C for 15 hours. After removing the antibody solution, the reaction product in each well was blocked at 4°C for 24 hours in a PBS solution (5% sucrose, 0.1% NaN3) containing 2.5% of BSA. The plate was subjected to measurements after airdrying.
The RB amino acid sequence 301aa-928aa was expressed as a GST fusion protein in Escherichia coli, and the protein (RB301) purified using glutathione Sepharose and phosho-Cellulose columns (P11) was used as the substrate. Cyclin D1/CDK4, cyclin A/CDK2, cyclin E/CDK2, and cyclin B/CDK1, respectively, were expressed in the sf9 cells using baculovirus, and were purified using a cobalt column and phospho-Cellulose column in order to use them as the cyclin/CDK complexes.
(§2) RB301 (10µg/ml), 100µM ATP, and respective Cyclin/CDK were added to the phosphate buffer (50 mM HEPES, 0.05% Triton X, 15 mM MgCl2, 2 mM EGTA, 200 µg/ml BSA) (final reaction volume of 180 µl), and was reacted for 30 minutes at 30°C. The reaction was stopped by adding 180 µl of PBS (10% skim milk, 350 mM NaCl, 50 mM EDTA) to each assay system.
After completing the phosphorylation reaction, 100 µl of each of the reaction solutions was added to the antibody sensitization plate, which was incubated at room temperature for 1 hour (primary reaction). After washing with PBS [washing solution: PBS (500 mM NaCl, 0.1% Tween 20)] five times using a wash-bottle, 100 µl of anti-GST polyclonal antibody solution (0.5 µg/ml) was added to each well of the microplate, followed by incubation at room temperature for 1 hour (secondary reaction). After washing with PBS [washing solution: PBS (500 mM NaCl, 0.1% Tween 20)] five times using a wash-bottle, 100 µl of HRP labeled anti-rabbit IgG antibody solution (20,000-fold dilution) was added to each well of the microplate, followed by incubation at room temperature for 30 minutes (tertiary reaction). Then, the reaction solution was colored (coloring reaction) at room temperature for 30 minutes using TMB (tetramethylbentidine).

CDK4 [1] = molecular target: T2, CDK4 (Homo sapiens, UniProt P11802); conditions: reported in the literature (Meijer et al. 1997); cited from earlier work
T2 sequence (P11802 whole entry, species assumed): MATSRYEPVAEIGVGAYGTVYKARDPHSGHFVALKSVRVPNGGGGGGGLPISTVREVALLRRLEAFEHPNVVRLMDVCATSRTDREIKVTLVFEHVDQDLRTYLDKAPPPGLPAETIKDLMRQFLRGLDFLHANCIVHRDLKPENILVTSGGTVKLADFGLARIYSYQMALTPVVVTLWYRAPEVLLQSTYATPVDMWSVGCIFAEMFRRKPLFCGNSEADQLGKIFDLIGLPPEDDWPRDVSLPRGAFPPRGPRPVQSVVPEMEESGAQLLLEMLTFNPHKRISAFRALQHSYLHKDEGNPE
T2 sequence (P24385 whole entry partner, species assumed): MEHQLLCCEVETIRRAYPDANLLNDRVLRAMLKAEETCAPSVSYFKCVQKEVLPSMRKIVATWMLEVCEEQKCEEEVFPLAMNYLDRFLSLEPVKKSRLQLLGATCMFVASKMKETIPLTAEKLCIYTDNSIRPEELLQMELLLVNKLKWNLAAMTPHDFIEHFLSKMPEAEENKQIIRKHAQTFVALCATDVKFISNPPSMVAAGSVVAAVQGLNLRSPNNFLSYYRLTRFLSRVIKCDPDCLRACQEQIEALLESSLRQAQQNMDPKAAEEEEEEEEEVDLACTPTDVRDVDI

cyclin E/CDK2 complex = molecular target: T3, cyclin E/CDK2 complex (Homo sapiens, UniProt P24941); assay: ELISA method, inhibitory effect on cyclin E/CDK2 complex; assay type: biochemical; conditions: RB301 substrate, 100 µM ATP, Figs. 4 and 8
T3 construct: 6xHis (N); made in house; host or cells: Sf9 insect cells (baculovirus)
Procedure: as §1
(§3) Cyclin D1/CDK4, cyclin A/CDK2, cyclin E/CDK2, and cyclin B/CDK1, respectively, were expressed in the sf9 cells using baculovirus, and were purified using a cobalt column and phospho-Cellulose column in order to use them as the cyclin/CDK complexes.
as §2
(§4) After completing the phosphorylation reaction, 100 µl of each of the reaction solutions was added to the antibody sensitization plate, which was incubated at room temperature for 1 hour (primary reaction). […]

cyclin A/CDK2 complex = molecular target: T4, cyclin A/CDK2 complex (Homo sapiens, UniProt P24941); assay: ELISA method, inhibitory effect on cyclin A/CDK2 complex; assay type: biochemical; conditions: RB301 substrate, 100 µM ATP, Figs. 3 and 7
T4 construct: 6xHis (N); made in house; host or cells: Sf9 insect cells (baculovirus)
Procedure: as §1, §3, §2, §4

CDK4 [2] = molecular target: T2, CDK4; conditions: against CDK4; nominal value; cited from earlier work
MEK = conditions: inhibitor to MEK; nominal value of commercially available reagent; cited from earlier work
cdk2 = cdk2 (Homo sapiens, UniProt P24941); conditions: against CDK2; nominal value; cited from earlier work
PKC = conditions: against PKC; nominal value of commercially available reagent; cited from earlier work
cyclin B/CDK1 complex = molecular target: T5, cyclin B/CDK1 complex (Homo sapiens, UniProt P06493); assay type: biochemical; conditions: ELISA method; RB301 substrate, 100 µM ATP; Figs. 2 and 6
T5 construct: 6xHis (N); made in house; host or cells: Sf9 insect cells (baculovirus)
T5 sequence (P06493 whole entry): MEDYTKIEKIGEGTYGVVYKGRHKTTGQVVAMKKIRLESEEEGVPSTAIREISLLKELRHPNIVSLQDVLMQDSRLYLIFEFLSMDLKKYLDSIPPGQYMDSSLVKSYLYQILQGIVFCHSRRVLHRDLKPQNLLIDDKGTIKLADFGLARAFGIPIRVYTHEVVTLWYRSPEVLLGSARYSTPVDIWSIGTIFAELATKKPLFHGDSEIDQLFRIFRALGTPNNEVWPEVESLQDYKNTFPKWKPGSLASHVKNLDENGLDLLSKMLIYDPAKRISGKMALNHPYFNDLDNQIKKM
T5 sequence (P14635 whole entry partner): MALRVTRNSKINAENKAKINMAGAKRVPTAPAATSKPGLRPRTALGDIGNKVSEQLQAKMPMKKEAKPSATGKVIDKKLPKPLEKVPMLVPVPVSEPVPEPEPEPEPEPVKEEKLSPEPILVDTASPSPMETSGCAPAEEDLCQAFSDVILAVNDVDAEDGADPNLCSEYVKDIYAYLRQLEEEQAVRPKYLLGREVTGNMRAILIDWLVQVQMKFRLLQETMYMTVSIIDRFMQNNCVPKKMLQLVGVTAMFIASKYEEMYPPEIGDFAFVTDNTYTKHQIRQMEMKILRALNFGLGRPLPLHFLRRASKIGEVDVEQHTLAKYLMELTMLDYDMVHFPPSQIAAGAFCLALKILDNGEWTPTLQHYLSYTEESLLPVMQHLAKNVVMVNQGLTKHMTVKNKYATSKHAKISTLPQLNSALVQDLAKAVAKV
Procedure: as §1, §3, §2, §4

T1 sequence (P11802 whole entry): as the sequence (P11802 whole entry, species assumed) above
T1 sequence (P24385 whole entry partner): as the sequence (P24385 whole entry partner, species assumed) above

Compound	inhibitory effect on cyclin D1/CDK4 compared with the other three cyclin/CDK complexes (cyclin D1/CDK4 complex)	OD levels (inhibitory effect) (cyclin D1/CDK4 complex)	inhibitory effect on cdk4 (CDK4 [1])	OD levels (inhibitory effect) (cyclin E/CDK2 complex)	OD levels (inhibitory effect) (cyclin A/CDK2 complex)	pIC50 (CDK4 [2])	pIC50 (MEK)	pIC50 (cdk2)	pKi (PKC)	OD levels (inhibitory effect) (cyclin B/CDK1 complex)
CC[C@H](CO)Nc1nc(NCc2ccccc2)c2ncn(C(C)C)c2n1 [Roscovitine]	weaker than those on the other three cyclin/CDK complexes	decreased in a inhibitor concentration-dependent manner	remarkably weak inhibitory effect							
N#CC(=C(/N)Sc1ccccc1N)/C(C#N)=C(\N)Sc1ccccc1N [U0126]		almost no decrease in the OD value		almost no decrease in the OD value	almost no decrease in the OD value	< 5.00	7.26	< 5.00		
COC(=O)[C@@]1(O)C[C@H]2O[C@]1(C)n1c3ccccc3c3c4c(c5c6ccccc6n2c5c31)C(=O)NC4 [K252a]		decreased in a inhibitor concentration-dependent manner		decreased in a inhibitor concentration-dependent manner	decreased in a inhibitor concentration-dependent manner				7.60	decreased in a inhibitor concentration-dependent manner
Cn1cnc2nc(NCCO)nc(NCc3ccccc3)c21 [Olomoucine-isomer]		almost no decrease in the OD value								

— patent publication EP1207395A1, “METHOD FOR MEASURING KINASE ACTIVITY OF CYCLIN/CDK COMPLEX” (Medical & Biological Laboratories Co., Ltd., priority 1999, dated 2001)
